Measurements reported in patent US20240277732A1, “COMPOSITIONS AND METHODS FOR TREATING BRAIN-GUT DISORDERS” (Enterin, Inc., priority 2018, published 2024).

Assays:
PD population = conditions: short term placebo controlled trial; cited from earlier work
[1] = Intranasal pharmacokinetics in CSF; format: in vivo, Sprague Dawley rats; conditions: 0.5 mg/kg IN, SD rats
From the text: (§1) The purpose of this example was to evaluate the in vivo distribution and function of aminosterols, such as Aminosterol 1436 and squalamine, following intranasal administration. This experiment relates to the amount of drug needed to obtain a therapeutic result, based on an IN route of administration. The results described below detail that aminosterols such as Aminosterol 1436 act at the level of the hypothalamus following in vivo administration, regardless of the route of administration.

[2] = Intranasal pharmacokinetics in plasma; format: in vivo, Sprague Dawley rats; conditions: plasma, 0.5 mg/kg IN dose, SD rats
From the text: as §1

[3] = test system: myenteric intrinsic primary afferent neurons (IPANs); assay: Whole-cell patch clamp of IPANs, divided hemi-dissection preparation of FVB PD mouse; format: cell-based
Description: Whole-cell Patch Clamp: Whole-cell patch clamp was performed on a hemi-dissected myenteric plexus preparation as previously described.
IPAN excitability: PD model mice have reduced IPAN excitability. To determine the mechanism by which squalamine stimulated intestinal motility, electrophysiological studies on single neurons within the intact myenteric plexus of PD mice and corresponding control animals were conducted using published methods. In this series of studies a mouse α-synuclein knock-out model that expressed four copies of human A53T α-synuclein driven by the endogenous α-synuclein promoter (FVB PD), with the control (FVB control) represented by a strain engineered to express two copies of the normal human α-synuclein protein, was used.
IPANs from FVB PD animals were less excitable than IPANs recorded from FVB controls. The sample AP threshold (mean SD (N)) was 46% smaller for FVB control (32.2±20.0 (16)) compared to FVB PD (59.2±46.1 (20)). The number of action potentials produced by a current 2× the threshold intensity was 145% larger, 3.9±5.1 (16) for FVB control versus 1.6±0.6 (19) for FVB PD. The area under of the curve for the sAHP was 42% smaller −49.5±63.7 (16) versus −85.5±78.2 (19). RMP was depolarized by 10% for the FVB control, −56±10 (16) versus −62±6 (20).
Myenteric Primary Afferent Neuron Excitation: Squalamine excites myenteric primary afferent neurons. The effect of squalamine on the excitability of an isolated intestinal segment from the FVB PD mouse was explored using divided hemi-dissection preparations so that neurons are exposed for only half the area of an opened small intestinal segment. In this experiment, the inquiry was whether squalamine influenced the activity of the IPAN through direct interaction or indirectly, by stimulating release of epithelial mediators that influenced IPAN behaviour. Addition of squalamine (30 μM) to Krebs buffer in either the epithelial or the myenteric plexus compartments of the divided hemi-dissection preparation increased IPAN excitability. […] Addition of squalamine decreased the area under the curve of the sAHP by 77% from 86.8±88.2 to 20.3±25.3 mV·s, and depolarised RMP by 12% from −62±7 to −54±6 mV.

[4] = test system: colonic propagating contractile clusters (PCCs); assay: Ex vivo colon motility with intraluminal squalamine, control mouse strains
Description: Ex vivo colon motility: For the ex vivo colonic motility experiments, the colon was excised and placed within an organ-bath perfusion chamber filled with warmed, oxygenated Krebs buffer or physiological saline (35° C., 95% 02, 5% CO2). The colon was flushed and cannulated at the oral and anal ends to a manifold and syringe to allow inflow of oxygenated Krebs buffer (or physiological saline) or Krebs and squalamine and to maintain intraluminal pressure. The height of the inflow tube at baseline measurements was parallel to the height of the colon in the organ bath (1.1 cm). Mechanical threshold defined an inflow pressure great enough to generate a contraction in under 30 sec (1.8 cm). Recordings in the first portion of the study were measured at a mechanical threshold causing a pressure differential of 2 hPa (cm H2O). Inflow was raised 2-3 hPa above baseline and outflow was raised a minimum of 0.2 hPa above inflow. Motor patterns were recorded using a Microsoft LifeCam 3000 web camera or a Logitech Quickcam Pro camera positioned 7-8 cm above the tissue. Videos were recorded during a 20-minute Krebs control and a 20-minute Krebs+squalamine period in which solutions were added to the inflow syringe.
Spatiotemporal Maps: Video recordings were used to construct spatiotemporal maps (STmaps) using edge detection software. Parameters of motor patterns including, velocity, amplitude, and frequency were measured using ImageJ and Matlab (Version 12) software.
Statistical Analysis: Effects of squalamine on motility and IPAN excitability in WT and PD model mice were assessed in paired experiments following Krebs control and subsequent squalamine exposure. Unpaired comparisons were performed for experiments comparing PD control and PD model strains. Percent difference was calculated by (treatment-control)/control. Data are presented as mean±SEM. Ex vivo statistical comparisons were performed using paired or unpaired, two-tailed t-tests or 1-way ANOVA using Graphpad Prism software (Version 7.0). In vivo studies were analysed using 1-way and 2-way ANOVA. Statistical significance was determined when p<0.05.

A53T and WT mice = assay: In vivo fecal pellet output; parameters: species or system mouse
Description: In vivo fecal pellet output: Mice were subjected to the FPO test 1 day prior to the start of dosing with squalamine or vehicle (sterile water) (day 0). Mice were fasted for one hour and then given access to food one hour before FPO testing. On days 1-5 mice were fasted for one hour prior to oral gavage with vehicle or 20, 40, 80, or 120 mg/kg squalamine. Oral gavage occurred between 10:00 to 11:00 am daily. On day 5, the FPO test was performed 1 hour after the final dose was administered. Total number of stool pellets produced in the first 15 min and over a 60 min period was measured in each group. Stool water content was measured by comparing wet and dry weights of the stool.
In Vivo Fecal Pellet Output: Feeding of squalamine increased fecal pellet output, without substantially increasing water content, in vivo. To extend the ex vivo studies to the animal, both A53T and WT mice (N=10 mice/group/dose) were administered squalamine orally by gavage for 5 days (Day 1 to Day 5), at a range of doses from 0, 20, 40, 80 and 120 mg/kg. Fecal pellet output (FPO) within the first 15 minutes was measured following the gavage of vehicle control (on Day 0) or squalamine (on Day 5, at doses of 0, 20, 40, 80, and 120 mg/kg). There was no significant difference in the FPO in the first 15 min in WT and A53T mice between Days 0 and 5, in the groups receiving only vehicle (P>0.05). […] An increase in colonic motility should decrease the time of the stool within the colon and thereby increase the moisture content of the fecal pellets. […] Thus, squalamine appears to increase colonic transit in vivo.

[5] = test system: patients with PD and constipation; assay: Phase 2 trial Stage 2: bowel function under daily oral dosing (stool diary, PAC-QOL, PAC-SYM); format: in vivo, human; conditions: patients with baseline ≥1 CSBM/week
Description: Following successful screening, all subjects underwent a 14-day run-in period where the degree of constipation was assessed through a validated daily log (Zinsmeister et al. 2013) establishing baseline CSBMs/week. Subjects with an average of <3 CSBMs/week proceeded to dosing.
In Stage 2, 34 patients were evaluated.
The primary efficacy outcome variable was whether or not a subject was a “success” or “failure”. This is an endpoint based on subject diary entries for the “fixed dose” period prior to the endpoint assessment defined as average complete stool frequency increase by 1 or more over baseline, or 3 or more complete spontaneous stools/week. The subject was deemed a “success” if s/he met one or more of the criteria listed above, otherwise the subject was deemed a “failure”. The primary analysis was based on all subjects with a baseline assessment and an assessment at the end of the “fixed-dose” period and was a comparison of the proportion of successes with 0.10 (the null hypothesis corresponding to no treatment effect).

[6] = test system: individuals with mild constipation; conditions: cited from earlier work

CCCCC(F)(F)[C@@]1(O)CC[C@H]2[C@@H](CC(=O)[C@@H]2CCCCCCC(=O)O)O1 [Lubiprostone]
share of treated in whom effective (PD population): about 50%

CC(C)[C@@H](CC[C@@H](C)[C@H]1CC[C@H]2[C@@H]3[C@H](O)C[C@H]4C[C@@H](NCCCNCCCCN)CC[C@]4(C)[C@H]3CC[C@]12C)OS(=O)(=O)O.C[C@H](O)C(=O)O.O [squalamine lactate]
presence in CSF [1]: No squalamine lactate or Aminosterol 1436 was found in CSF | AUCInf [2]: 7863 ng·h/mL | AUC_% Extrap_obs [2]: 32.7% | AUClast [2]: 5296 ng·h/mL | AUClast/D [2]: 10600 kg·ng·h/mL/mg | Cmax [2]: 1001 ng/mL | MRTInf_obs [2]: 7.12 h | T1/2 [2]: 4.55 h | Tmax [2]: 1.00 h

CC(C)[C@@H](CC[C@@H](C)[C@H]1CC[C@H]2[C@@H]3[C@H](O)C[C@H]4C[C@@H](NCCCNCCCCN)CC[C@]4(C)[C@H]3CC[C@]12C)OS(=O)(=O)O [squalamine]
decrease of AP threshold ([3]; added to the epithelium): 44% | decrease of sAHP AUC ([3]; added to the epithelium): 77% | increase of number of APs at 2× threshold current ([3]; added to the epithelium): 87% | number of APs at 2× threshold current ([3]; added to the epithelium, before 1.6±0.6): 3.1±0.7 | decrease of AP threshold ([3]; added to the myenteric plexus): 37% | decrease of sAHP AUC ([3]; added to the myenteric plexus): 87% | number of APs at 2× threshold current ([3]; added to the myenteric plexus, before 1.4±0.5): 4.4±2.8 | area under the curve of the sAHP ([3]; added to the myenteric plexus, before −71.9±60.1): −9.6±15.1 mV·s | increase of PCC velocity ([4]; C57BL/6 (P<0.05)): 38% | increase of PCC amplitude ([4]; C57BL/6 (P=0.27)): 1% | increase of PCC frequency ([4]; C57BL/6 (P=0.27)): 51% | PCC frequency ([4]; C57BL/6, control 0.007±0.001): 0.010±0.003 Hz | PCC amplitude ([4]; C57BL/6, control 0.66±0.06): 0.70±0.07 cm | PCC velocity ([4]; C57BL/6, control 1.31±0.10): 1.80±0.20 mm/s | increase of PCC velocity ([4]; CD-1 (P<0.01)): 81% | increase of PCC frequency ([4]; CD-1 (P=0.06)): 63% | increase of PCC amplitude ([4]; CD-1 (P=0.56)): 12% | increase of PCC velocity ([4]; Swiss Webster (P<0.0001)): 45% | increase of PCC frequency ([4]; Swiss Webster (P<0.01)): 35% | decrease of PCC amplitude ([4]; Swiss Webster (P=0.65)): 3% | stool water content (A53T and WT mice; A53T mice, 80 and 120 mg/kg (P=0.023 and 0.0004)): significantly increased water content | FPO in the first 15 min, Day 5 versus Day 0 (A53T and WT mice; A53T mice, oral gavage 5 days, 20, 40 and 80 mg/kg (P<0.005, P<0.0001, P<0.01)): significantly increased FPO | fecal pellet output (A53T and WT mice; PD and wild type mice, 40 mg/kg/d for 5 days): increased their fecal pellet output | stool water content (A53T and WT mice; WT mice, 80 mg/kg (P=0.025)): significantly increased water content | FPO in the first 15 min, Day 5 versus Day 0 (A53T and WT mice; WT mice, oral gavage 5 days, 40 and 120 mg/kg (P<0.01 and P<0.05)): significantly increased FPO | mean prokinetic dose [5]: 120 mg

polyethylene glycol [polyethylene glycol (Magrogol)]
stool frequency and consistency [6]: shown to provide benefit
